Laboratory results published in patent US9907758B2, “Process for preparing solid lipid sustained release nanoparticles for delivery of vitamins” (Department of Biotechnology (DBT), priority 2012, dated 2018).
Like-named read-outs stand apart in the source and are kept apart here. Blank lines part the entries; values can stand above or below the compound they belong to.

Legend:
[1] = In vivo pharmacokinetic studies, oral and subcutaneous; set-up: species or system male Wistar rats; conditions: for AUC(0-t): plasma
Description: In vivo pharmacokinetic studies were performed using male Wistar rats weighing 250-300 g. The protocol was duly approved by the Institutional Animal Ethics Committee (IAEC) of Panjab University, Chandigarh, India. The animals were divided into four groups (n=6). Group 1 was administered 2.5 Lacs International units (IU) subcutaneous retinoic acid and vitamin D3 SLNs simultaneously, Group 2 was also simultaneously administered 2.5 Lacs IU free retinoic acid and vitamin D3. Group 3 was administered simultaneously 1 Lac IU oral Retinoic acid and vitamin D3 SLNs, Group 4 was administered simultaneously 1 Lac IU oral free Retinoic acid and vitamin D3. The blood samples (0.5 mL) were withdrawn from sinus under clavicle and, collected into heparinized micro-centrifuge tubes (containing […] of 1000 IU heparin/mL of blood) at 0.5 h, 1 h, 2 h, 4 h, 8 h, 12 h, 24 h, 48 h, 72 h, 96 h, 120 h, 144 h, 168 h. After each sampling, 1 mL of dextrose-normal saline was administered to prevent changes in the central compartment volume and electrolytes. Plasma was separated by centrifuging the blood samples at 4000 rpm for 10 min at 4° C. After centrifugation, the plasma obtained was stored at −20° C. until analysis.
500 microliter blank plasma was taken and into it added 20 microliter stock standard dilutions of different concentrations (0.01 mcg to 1 mcg) (vortex) and added 400 microliter of chilled ethanol (vortex) and to it was added 2 ml (n-Hexane:ethylacetate (90:10) (Vortex) and the same was kept at −20° C. for 5 min followed by Cold centrifuge at 5000 rpm for 5 min finally separating the upper layer carefully and drying the solution under rotavapour/nitrogen gas, after drying add 250 microliter of acetonitrile and inject the sample to HPLC/UPLC. The method was applied for extraction procedure for Pharmacokinetic samples after giving SLNs and free drugs of Retinoic acid and vitamin D3 formulation to rats as oral/subcutaneous routes and sampling time points (0.5 h, 1 h, 2 h, 4 h, 8 h, 12 h, 24 h, 48 h, 72 h, 96 h, 120 h, 144 h, 168 h).

[2] = in vivo; cited from earlier work

SMILES: C=C1CC[C@H](O)C/C1=C/C=C1\CCC[C@]2(C)[C@@H]([C@H](C)CCCC(C)C)CC[C@@H]12 [Vitamin D3-S, cholecalciferol]
Cmax ([1]; male, Wistar, rat, in vivo, po): < 25 ng/mL
Tmax ([1]; male, Wistar, rat, in vivo, po): 0 min
Cmax ([1]; male, Wistar, rat, in vivo, sc): < 25 ng/mL
Tmax ([1]; male, Wistar, rat, in vivo, sc): 0 min
Kel ([1]; plasma vitamin D3, single dose oral, 1 Lac IU, rat): 0.0
Kel ([1]; plasma vitamin D3, single dose subcutaneous, 2.5 Lac I.U, rat): 0.0
CL ([1]; rat, in vivo, po): 0.0 mL/h/g
T1/2 ([1]; rat, in vivo, po): 0 h
CL ([1]; rat, in vivo, sc): 0.0 mL/h/g
T1/2 ([1]; rat, in vivo, sc): 0 h

SMILES: C=C1CC[C@H](O)C/C1=C/C=C1\CCC[C@]2(C)[C@@H]([C@H](C)CCCC(C)C)CC[C@@H]12 [vitamin D3, cholecalciferol]
Cmax in plasma [2]: not more than 75 ng/ml

Cmax ([1]; male, Wistar, 1 Lac IU, plasma ATRA, oral administration, rat, read-out: Cmax): 151 ng/mL
AUC(0-t) ([1]; male, Wistar, rat, po, 1 Lac I.U, plasma ATRA, single dose oral, 1 Lac I.U, rat, read-out: AUC (0-T)): 357 ng·h/mL
AUC(0-t) ([1]; male, Wistar, rat, po, 1 Lac I.U, plasma ATRA, single dose oral, 1 Lac I.U, rat, read-out: AUC (T-∞)): 714 ng·h/mL
AUC(0-t) ([1]; male, Wistar, rat, po, 1 Lac IU, plasma ATRA, oral administration, rat, read-out: AUC0-t): 356 ng·h/mL
AUC(0-t) ([1]; male, Wistar, rat, po, 1 Lac IU, plasma ATRA, oral administration, rat, read-out: AUCt-∞): 713 ng·h/mL
AUC(0-t) ([1]; male, Wistar, rat, sc, 2.5 Lac I.U, plasma ATRA, single dose subcutaneous, 2.5 Lac I.U, rat, read-out: AUC (0-T)): 2820 ng·h/mL
AUC(0-t) ([1]; male, Wistar, rat, sc, 2.5 Lac I.U, plasma ATRA, single dose subcutaneous, 2.5 Lac I.U, rat, read-out: AUC (T-∞)): 2950 ng·h/mL
AUC(0-t) ([1]; male, Wistar, rat, sc, 2.5 Lacs IU, plasma ATRA, single dose subcutaneous, rat, read-out: AUC0-t): 2820 ng·h/mL
AUC(0-inf) ([1]; male, Wistar, sc, 2.5 Lacs IU, plasma ATRA, single dose subcutaneous, rat): 2950 ng·h/mL
Cmax ([1]; male, Wistar, sc, 2.5 Lacs IU, plasma ATRA, single dose subcutaneous, rat, read-out: Cmax): 1390 ng/mL
Cmax ([1]; male, Wistar, sc, plasma ATRA, single dose subcutaneous injection, 2.5 Lac I.U, rat, read-out: Cmax): 1400 ng/mL
half-life ([1]; male, Wistar, sc, plasma ATRA, single dose subcutaneous, 2.5 Lac I.U, rat): 57 min
Tmax ([1]; male, Wistar, sc, plasma ATRA, single dose subcutaneous, 2.5 Lac I.U, rat, read-out: Tmax): 30 min
half-life ([1]; male, Wistar, plasma ATRA, single dose oral, 1 Lac I.U, rat): 290 min
Cmax ([1]; male, Wistar, plasma ATRA, single dose oral, 1 Lac I.U, rat, read-out: Cmax): 151 ng/mL
Tmax ([1]; male, Wistar, plasma ATRA, single dose oral, 1 Lac I.U, rat, read-out: Tmax): 54 min
Kel ([1]; plasma ATRA, single dose oral, 1 Lac I.U, rat): 0.17
Kel ([1]; plasma ATRA, single dose subcutaneous, 2.5 Lac I.U, rat): 0.74
plasma ATRA dropped to an undetectable level at, after dosing ([1]; rat plasma): 4 h
SMILES: CC1=C(/C=C/C(C)=C/C=C/C(C)=C/C(=O)O)C(C)(C)CCC1 [ATRA-S, all-trans retinoic acid]
